Data on 26 compounds can be found in patent publication US10669268B2, “Bicyclic derivatives” (Hoffmann-La Roche Inc., priority 2012, dated 2020).

As a reminder, the IC50 is the midpoint of a concentration-inhibition curve.

The target of this experiment is ATX (human His-tagged) (Homo sapiens (Human), UniProt Q13822). Nature of the experiment: Human ATX enzyme inhibition assay (fluorescence quenching, MR121 substrate). The settings on record: 30 nM ATX, 1 μM MR121 substrate, 30° C., pH 8.0. Format: biochemical. Put shortly: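 Fluorescence-quenching assay using MR121 substrate at 1 μM final, incubated 15 min at 30 °C. Buffer was 50 mM Tris-HCl pH 8.0 with 140 mM NaCl, 5 mM KCl, 1 mM CaCl2, 1 mM MgCl2 and 0.01% Triton X-100.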
For the compound `O=C(OCc1cc(Cl)cc(Cl)c1)N1C[C@H]2CN(C(=O)c3ccc4[nH]nnc4c3)C[C@@H]2C1` [Example 4.02, (3aR,6aR)-3,5-dichlorobenzyl 5-(1H-benzo[d][1,2,3]triazole-5-carbonyl)hexahydropyrrolo[3,4-c]pyrrole-2(1H)-carboxylate], the half-maximal inhibitory concentration (IC50) came out at 11 nM.
As for `CS(=O)(=O)c1cc(Cl)cc(COC(=O)N2C[C@@H]3CN(C(=O)c4ccc5[nH]nnc5c4)C[C@H]3C2)c1` [Example 4.03, (3aS,6aS)-5-(1H-benzotriazole-5-carbonyl)-hexahydro-pyrrolo[3,4-c]pyrrole-2-carboxylic acid 3-chloro-5-methanesulfonyl-benzyl ester], the figure is 11 nM.
As for `CS(=O)(=O)c1cc(Cl)cc(COC(=O)N2C[C@@H]3CN(C(=O)c4ccc5[nH]nnc5c4)C[C@@H]3C2)c1` [Example 4.04, (3aS,6aR)-5-(1H-benzotriazole-5-carbonyl)-hexahydro-pyrrolo[3,4-c]pyrrole-2-carboxylic acid 3-chloro-5-methanesulfonyl-benzyl ester], the figure is 46 nM.
Compound `CS(=O)(=O)c1cc(COC(=O)N2CC[C@@H]3CN(C(=O)c4ccc5[nH]nnc5c4)C[C@@H]3CC2)cc(C(F)(F)F)c1` [Example 4.05, (3aS,8aR)-2-(1H-benzotriazole-5-carbonyl)-octahydro-pyrrolo[3,4-d]azepine-6-carboxylic acid 3-methanesulfonyl-5-trifluoromethyl-benzyl ester] gave an IC50 of 11 nM.
As for `CS(=O)(=O)c1cc(Cl)cc(COC(=O)N2CC[C@@H]3CN(C(=O)c4ccc5[nH]nnc5c4)C[C@@H]3CC2)c1` [Example 4.06, (3aS,8aR)-2-(1H-benzotriazole-5-carbonyl)-octahydro-pyrrolo[3,4-d]azepine-6-carboxylic acid 3-chloro-5-methanesulfonyl-benzyl ester], the figure is 12 nM; as for `CS(=O)(=O)c1cc(COC(=O)N2C[C@@H]3CN(C(=O)c4ccc5[nH]nnc5c4)C[C@@H]3C2)cc(C(F)(F)F)c1` [Example 4.07, (3aS,6aR)-5-(1H-benzotriazole-5-carbonyl)-hexahydro-pyrrolo[3,4-c]pyrrole-2-carboxylic acid 3-methanesulfonyl-5-trifluoromethyl-benzyl ester], 16 nM; as for `CS(=O)(=O)c1cc(Cl)cc(COC(=O)N2C[C@@H]3CN(C(=O)c4ccc5[nH]nnc5c4)CC[C@H]3C2)c1` [Example 4.09, (3aS,7aR)-5-(1H-benzotriazole-5-carbonyl)-octahydro-pyrrolo[3,4-c]pyridine-2-carboxylic acid 3-chloro-5-methanesulfonyl-benzyl ester], 49 nM.
Turning to `O=C(OC1(c2cccc(Cl)c2)CC1)N1C[C@@H]2CN(C(=O)c3ccc4[nH]nnc4c3)C[C@@H]2C1` [Example 4.12, (3aS,6aR)-5-(1H-benzotriazole-5-carbonyl)-hexahydro-pyrrolo[3,4-c]pyrrole-2-carboxylic acid 1-(3-chloro-phenyl)-cyclopropyl ester], 1480 nM corresponded to half-maximal inhibition (IC50).
The result for `O=C(OCC1C2CCCCC21)N1C[C@@H]2CN(C(=O)c3ccc4[nH]nnc4c3)C[C@@H]2C1` (stereo partly drawn) [Example 4.13, (3aS,6aR)-5-(1H-benzotriazole-5-carbonyl)-hexahydro-pyrrolo[3,4-c]pyrrole-2-carboxylic acid bicyclo[4.1.0]hept-7-ylmethyl ester] reads 2910 nM; that for `O=C(OCC1C2CC3CC(C2)CC1C3)N1C[C@@H]2CN(C(=O)c3ccc4[nH]nnc4c3)C[C@@H]2C1` (stereo partly drawn) [Example 4.14, (3aS,6aR)-5-(1H-benzotriazole-5-carbonyl)-hexahydro-pyrrolo[3,4-c]pyrrole-2-carboxylic acid adamantan-2-ylmethyl ester], 4190 nM.
For `O=C(OCCC1C2CC3CC(C2)CC1C3)N1C[C@@H]2CN(C(=O)c3ccc4[nH]nnc4c3)C[C@@H]2C1` (stereo partly drawn) [Example 4.16, (3aS,6aR)-5-(1H-benzotriazole-5-carbonyl)-hexahydro-pyrrolo[3,4-c]pyrrole-2-carboxylic acid 2-adamantan-2-yl-ethyl ester], the IC50 amounted to 398 nM.
The compound `O=C(OCCC12CC3CC(CC(C3)C1)C2)N1C[C@@H]2CN(C(=O)c3ccc4[nH]nnc4c3)C[C@@H]2C1` [Example 4.17, (3aS,6aR)-5-(1H-benzotriazole-5-carbonyl)-hexahydro-pyrrolo[3,4-c]pyrrole-2-carboxylic acid 2-adamantan-1-yl-ethyl ester] came in with an IC50 of 799 nM.
On to `O=C(OCC12CC3CC(CC(C3)C1)C2)N1C[C@@H]2CN(C(=O)c3ccc4[nH]nnc4c3)C[C@@H]2C1` [Example 4.18, (3aS,6aR)-5-(1H-benzotriazole-5-carbonyl)-hexahydro-pyrrolo[3,4-c]pyrrole-2-carboxylic acid adamantan-1-ylmethyl ester], for which the concentration for half-maximal inhibition (IC50) was 5620 nM.
The result for `O=C(OCC1CCCCC1)N1C[C@@H]2CN(C(=O)c3ccc4[nH]nnc4c3)C[C@@H]2C1` [Example 4.19, (3aS,6aR)-5-(1H-benzotriazole-5-carbonyl)-hexahydro-pyrrolo[3,4-c]pyrrole-2-carboxylic acid cyclohexyl methyl ester] reads 1580 nM.
For the compound `COC(c1cccc(COC(=O)N2C[C@@H]3CN(C(=O)c4ccc5[nH]nnc5c4)C[C@@H]3C2)c1)C(F)(F)F` (stereo partly drawn) [Example 4.20, cis-5-(1H-benzotriazole-5-carbonyl)-hexahydro-pyrrolo[3,4-c]pyrrole-2-carboxylic acid 3-(2,2,2-trifluoro-1-methoxy-ethyl)-benzyl ester], half-maximal inhibition (IC50) required 722 nM.
As for `O=C(OCc1cccc(C(O)C(F)(F)F)c1)N1C[C@@H]2CN(C(=O)c3ccc4[nH]nnc4c3)C[C@@H]2C1` (stereo partly drawn) [Example 4.21, cis-5-(1H-benzotriazole-5-carbonyl)-hexahydro-pyrrolo[3,4-c]pyrrole-2-carboxylic acid 3-(2,2,2-trifluoro-1-hydroxy-ethyl)-benzyl ester], the figure is 3480 nM; as for `O=C(OCCC1CCCCC1)N1C[C@@H]2CN(C(=O)c3ccc4[nH]nnc4c3)C[C@@H]2C1` [Example 4.22, (3aR,6aS)-2-cyclohexylethyl 5-(1H-benzo[d][1,2,3]triazole-5-carbonyl)hexahydropyrrolo[3,4-c]pyrrole-2(1H)-carboxylate], 1380 nM.
As for `O=C(OCc1cc(F)cc(OC(F)(F)F)c1)N1C[C@@H]2CN(C(=O)c3ccc4[nH]nnc4c3)C[C@@H]2C1` [Example 4.23, (3aS,6aR)-5-(1H-benzotriazole-5-carbonyl)-hexahydro-pyrrolo[3,4-c]pyrrole-2-carboxylic acid 3-fluoro-5-trifluoromethoxy-benzyl ester], the figure is 17 nM.
As for `N#Cc1cc(Cl)cc(COC(=O)N2C[C@@H]3CN(C(=O)c4ccc5[nH]nnc5c4)C[C@@H]3C2)c1` [Example 4.24, (3aR,6aS)-3-chloro-5-cyanobenzyl 5-(1H-benzo[d][1,2,3]triazole-5-carbonyl)hexahydropyrrolo[3,4-c]pyrrole-2(1H)-carboxylate], the figure is 56 nM; as for `O=C(OCc1cccc(OC(F)(F)F)c1)N1C[C@@H]2CN(C(=O)c3ccc4[nH]nnc4c3)C[C@@H]2C1` [Example 4.25, (3aS,6aR)-5-(1H-benzotriazole-5-carbonyl)-hexahydro-pyrrolo[3,4-c]pyrrole-2-carboxylic acid 3-trifluoromethoxy-benzyl ester], 122 nM; as for `O=C(OCc1cc(F)cc(C(F)(F)F)c1)N1C[C@@H]2CN(C(=O)c3ccc4[nH]nnc4c3)C[C@@H]2C1` [Example 4.26, (3aS,6aR)-5-(1H-benzotriazole-5-carbonyl)-hexahydro-pyrrolo[3,4-c]pyrrole-2-carboxylic acid 3-fluoro-5-trifluoromethyl-benzyl ester], 51 nM.
With `O=C(OCc1cc(Cl)cc(OC(F)(F)F)c1)N1C[C@@H]2CN(C(=O)c3ccc4[nH]nnc4c3)C[C@@H]2C1` [Example 4.27, (3aS,6aR)-5-(1H-benzotriazole-5-carbonyl)-hexahydro-pyrrolo[3,4-c]pyrrole-2-carboxylic acid 3-chloro-5-trifluoromethoxy-benzyl ester], half-maximal inhibition (IC50) was put at 4 nM.
The result for `O=C(OCc1ccc(F)c(OC(F)(F)F)c1)N1C[C@@H]2CN(C(=O)c3ccc4[nH]nnc4c3)C[C@@H]2C1` [Example 4.28, (3aS,6aR)-5-(1H-benzotriazole-5-carbonyl)-hexahydro-pyrrolo[3,4-c]pyrrole-2-carboxylic acid 4-fluoro-3-trifluoromethoxy-benzyl ester] reads 123 nM.
Compound `N#Cc1cc(F)cc(COC(=O)N2C[C@@H]3CN(C(=O)c4ccc5[nH]nnc5c4)C[C@@H]3C2)c1` [Example 4.29, (3aR,6aS)-3-cyano-5-fluorobenzyl 5-(1H-benzo[d][1,2,3]triazole-5-carbonyl)hexahydropyrrolo[3,4-c]pyrrole-2(1H)-carboxylate] yielded a half-inhibitory concentration (IC50) of 643 nM.
The result for `COc1cc(Cl)cc(COC(=O)N2C[C@@H]3CN(C(=O)c4ccc5[nH]nnc5c4)C[C@@H]3C2)c1` [Example 4.30, (3aR,6aS)-3-chloro-5-methoxybenzyl 5-(1H-benzo[d][1,2,3]triazole-5-carbonyl)hexahydropyrrolo[3,4-c]pyrrole-2(1H)-carboxylate] reads 50 nM; that for `CC1C(COC(=O)N2C[C@@H]3CN(C(=O)c4ccc5[nH]nnc5c4)C[C@@H]3C2)[C@H]2CC[C@@H]1C2` (stereo partly drawn) [Example 4.31, (3aS,6aR)-5-(1H-benzotriazole-5-carbonyl)-hexahydro-pyrrolo[3,4-c]pyrrole-2-carboxylic acid (1S,4R)-3-methyl-bicyclo[2.2.1]hept-2-ylmethyl ester], 1820 nM.
